These results are taken from paper PMC5317004 (Scientific Reports, 2017).

Molecules are shown by their SMILES.

Usually IC50 stands for the concentration that inhibits the measured activity by half. A low value points to greater potency. The term Ki denotes a measure of affinity in units of concentration, obtained from inhibition or displacement.

This test deals with chimeric α7-GluClβR. Briefly: IVM pre-application before ACh, inhibition of ACh-elicited currents (whole-cell patch clamp). In kind it is cell-based, chick nAChR α7 / C. elegans GluClβ. How it is done: Data were extracted from experiments performed as in panel A. Since the currents could not be recovered following an exposure to IVM, each cell was exposed only to one concentration of IVM. […] The curve was fitted to the averaged data points with a non-linear regression using the Hill equation 2 (Eq. 2; r^2 = 0.996). Error bars correspond to SEM. Total of 41 cells were used to obtain the averaged points. Recordings were performed at −60 mV.
Since the ACh-evoked response could not be recovered after exposure of the cell to IVM, we had to perform the above application protocol in different cells for each IVM concentration separately. By that, we obtained the inhibition graph shown in the inset of Fig. 3.
In the case of inhibition of the current response, curves were fitted to the data points by a nonlinear regression using the Hill equation 2, […]
Supplementary Information […]
Supplementary Materials and Methods […]
DNA construct and preparation of cells for electrophysiological experiments The cDNA encoding the α7-GluClβ chimeric subunit was generated as described previously3, and was cloned into a pcDNA3.1 vector.
Chinese hamster ovary cells (CHO-K1, ATCC via Biological Industries Israel, Beit Haemek Ltd.) were cultured as performed previously2 in Dulbecco 's Modified E agle Med iu m (DMEM) containing 10% fetal calf serum (Biological Industries Israel Beit Haemek Ltd.), 2 mM glutamax, 100 Units/ml penicillin G and 100 μg/ml streptomycin, and grown in 5% CO2 at 37°C under 90-95% hu midity . CHO cells were seeded on glass coverslips (13-mm diameter) placed in a 24-multiwell plate. For the expression of the α7-GluClβR, cells were transiently transfected with the pcDNA3.1 plasmid containing the receptor’s ORF (200-600 ng per well) using transit-LT1 transfection reagent (Mirus, USA), according to the manufacturer’s protocol. pIRES-CD8 plas mid (200 ng per well) was also added to enable visualization of the ex pressing cells by beads coated with anti-CD8 antibodies (Invitrogen). […]
Reagent (Roche Life Science). Recordings were performed 48-72 hours following transfection.
Whole-cell patch clamp recordings
Recordings were performed in the aforementioned CHO cells, as previously described1,2. Whole-cell patch clamp experiments were performed with normal external solution (NES) contained (in millimolar): 140 NaCl, 2.8 KCl, 2 CaCl2, 2 MgCl2, 10 glucose and 10 HEPES, adjusted to pH 7.35 with NaOH (310 mOsM). The pipette solution contained […]
(in millimolar): 130 KCl, 4 MgCl2, 4 Na2ATP, 1 EGTA and 10 HEPES, adjusted to pH 7.35 with KOH (290 mOsM). The osmolarity of these solutions was maintained by adding sucrose.
The electrode resistance was 6-10 MΩ when filled with the pipette solution. External solutions were applied onto the cell by using the VC-77SP fast-step system (Warner Instruments, CT, USA) combined with N2 pressure of 3-4 psi to produce laminar flow of the external solution onto the patched cell. All measurements were performed at 25 °C. The currents w ere measured with an Axopatch 200B patch-clamp amplifier (Molecular Devices, Sunnyvale, CA) and a Digidata 1440A interface (Molecular Devices). Acquisition of recording data was performed at 2.5 kHz and recordings were low-pass filtered at 1 kHz, through a four-pole Bessel filter.
The pClamp 10 software (Molecular Devices) was used for data acquisition.
To determine the chloride conductance and the reversal potential during current decline, the following procedure was employed. […]
(In general: In patch-clamp work, channel activity is measured electrically.)

`CC[C@H](C)[C@H]1O[C@]2(CC[C@@H]1C)C[C@@H]1C[C@@H](C/C=C(\C)[C@@H](O[C@H]3C[C@H](OC)[C@@H](O[C@H]4C[C@H](OC)[C@@H](O)[C@H](C)O4)[C@H](C)O3)[C@@H](C)/C=C/C=C3\CO[C@@H]4[C@H](O)C(C)=C[C@@H](C(=O)O1)[C@]34O)O2` [IVM, Ivermectin]: the “ACh-elicited response after IVM pre-application, percent IP3/IP2” value (5 μM IVM for 10 sec, then 50 μM ACh 0.5 sec, relative to response after DMSO pre-application, N = 8) worked out at 16 ± 5.2%. Where the note is “5 μM IVM for 10 sec, wash > 2 min, 50 μM ACh, N = 5”, the “ACh-elicited response after IVM and long-term wash, percent IP4/IP2” value was 4.4 ± 1.3%. Further, where the note is “IVM applied prior to 50 μM ACh”, the “Hill coefficient (IVM inhibition curve)” value is given as approximately 3. Further, the half-maximal inhibitory concentration (IC50) (IVM applied prior to 50 μM ACh, −60 mV, 41 cells) was 156 nM. The inhibition constant (Ki) (IVM applied prior to activation by ACh, IC50 taken as Ki for non-competitive inhibition, read-out: inhibition constant (Ki)) stood at 156 nM.
